How the values were obtained:
[1] = mRNA encapsulation efficiency of lipid nanoparticles; format: physicochemical; details: for Encapsulation efficiency (EE): LNP with cationic lipid CL-A
Source text: In embodiments, the lipid nanoparticle encapsulates a nucleic acid, optionally an mRNA encoding a peptide or protein. In embodiments, the lipid nanoparticle encapsulates an mRNA encoding a peptide or protein, optionally for use in a vaccine. In embodiments, the peptide is an antigen. As used herein, the phrase “encapsulation percentage” refers to the fraction of therapeutic agent (e.g. mRNA) that is effectively encapsulated within a liposomal-based vehicle (e.g. a lipid nanoparticle) relative to the initial fraction of therapeutic agent present in the lipid phase. In embodiments, the lipid nanoparticles have an encapsulation percentage for mRNA of at least 50%. In embodiments, the lipid nanoparticles have an encapsulation percentage for mRNA of at least 55%. In embodiments, the lipid nanoparticles have an encapsulation percentage for mRNA of at least 60%. In embodiments, the lipid nanoparticles have an encapsulation percentage for mRNA of at least 65%. In embodiments, the lipid nanoparticles have an encapsulation percentage for mRNA of at least 70%. In embodiments, the lipid nanoparticles have an encapsulation percentage for mRNA of at least 75%. In embodiments, the lipid nanoparticles have an encapsulation percentage for mRNA of at least 80%. In embodiments, the lipid nanoparticles have an encapsulation percentage for mRNA of at least 85%. In embodiments, the lipid nanoparticles have an encapsulation percentage for mRNA of at least 90%. In embodiments, the lipid nanoparticles have an encapsulation percentage for mRNA of at least 95%. In embodiments, the encapsulation percentage is calculated by performing the Ribogreen assay (Invitrogen) with and without the presence of 0.1% Triton-X 100.
The lipid nanoparticles in the examples of the present invention were formulated using Process A of WO 2018/089801 (see, e.g., Example 1 and FIG. 1 of WO 2018/089801). Process A (“A”) relates to a conventional method of encapsulating mRNA by mixing mRNA with a mixture of lipids, without first pre-forming the lipids into lipid nanoparticles. In an exemplary process, an ethanolic solution of a mixture of lipids (cationic lipid, phosphatidylethanolamine, cholesterol, and polyethylene glycol-lipid) at a fixed lipid to mRNA ratio were combined with an aqueous buffered solution of target mRNA at an acidic pH under controlled conditions to yield a suspension of uniform LNPs. After ultrafiltration and diafiltration into a suitable diluent system, the resulting nanoparticle suspensions were diluted to final concentration, filtered, and stored frozen at −80° C. until use.
(§1) Lipid nanoparticle formulations 3 were prepared by Process A at a molar ratio of 40:1.5:30:28.5 (Cationic Lipid: DMG-PEG2000: Cholesterol: Helper Lipid) with the cationic lipids and helper lipids disclosed in the tables below. The Polydispersity Index (Pdl) of lipid nanoparticles can be determined by diluting the formulation in 10% trehalose at about 0.1 mg/ml mRNA concentration and then measuring the size on Malvern zetasizer. The lipid nanoparticle size can be obtained with Malvern Zetasizer Nano-ZS.

[2] = system: hEPO; experiment: IM EPO expression of LNPs containing new helper lipids (hEPO in serum by ELISA); format: in vivo, female BALB/cJ mice; details: for 6-h EPO / 24-h EPO: single IM injection; for 24-h EPO: serum 24 hours post injection; for Normalized Mean EPO expression: helper lipid CL-C formulations, IM, DOPE = 1
Procedure: Lipid nanoparticles were formulated containing the four lipid components shown below at a ratio of 40:30:28.5:1.5, complexed with a hEPO messenger RNA. • Cationic lipid, 40 mol % • Phospholipid (PEA) helper lipid, 30 mol % • Cholesterol, 28.5 mol % • DMG-PEG-2K (1,2-dimyristoyl-rac-glycero-3-methoxypolyethyleneglycol), 1.5 mol % The cationic lipid component of each formulation was selected from the compounds in the table below: […]
EPO expression studies were conducted with female BALB/cJ mice 6-8 weeks of age. Mice were dosed with […] EPO mRNA in 30 μL of LNPs by a single intramuscular (IM) injection into the gastrocnemius leg muscle. Blood samples were taken 6 and 24 hours post injection and hEPO levels were measured in the blood serum of the mice using an ELISA assay according to the manufacture's protocol. WO2022/099003 A1 also describes an in vivo assay for intramuscular administration (e.g. on page 46, paragraph [00206]).

[3] = Dynamic light scattering of lipid nanoparticles (size, PDI); format: physicochemical
Procedure: as §1
Dynamic light scattering (DLS) measurements were performed using a Malvern Instruments Zetasizer with a backscattering detector angle of 173° and a 4-mW, 633-nm He—Ne laser (Worcestershire, UK). The samples were analyzed by diluting in 10% Trehalose and measuring the size and Poly dispersity Index (PDI) in an optical grade polystyrene cuvette.

[4] = system: hEPO; experiment: IV EPO expression of LNPs (tail vein injection); format: in vivo, female BALB/cJ mice; details: cationic lipid CL-0137, helper lipid 30 mol %; 0.017 μg EPO mRNA tail vein; 6 hours; DOPE = 1
Procedure: Lipid nanoparticles were formulated containing the four lipid components shown below at a ratio of 40:30:28.5:1.5, complexed with a hEPO messenger RNA. • Cationic lipid CL-0137, 40 mol % • Helper lipid, 30 mol % • Cholesterol, 28.5 mol % • DMG-PEG-2K (1,2-dimyristoyl-rac-glycero-3-methoxypolyethyleneglycol), 1.5 mol %
EPO expression studies were conducted with female BALB/cJ mice 6-8 weeks of age. Mice were dosed with 0.017 μg EPO mRNA LNPs in a volume of 5 ul by a single tail vein injection. Blood samples were taken 6 hours post injection and hEPO levels were measured in the blood serum of the mice using an ELISA assay according to the manufacture's protocol.

[5] = CL-A LNP, 0.1 μg EPO mRNA in 30 μL, serum 6 hours post injection
[6] = CL-B LNP, serum 6 hours post injection
[7] = LNP with cationic lipid CL-A, hEPO mRNA, 40:30:28.5:1.5

Row | Encapsulation efficiency (EE) [1] [%] | EE ([1]; LNP with cationic lipid CL-B) [%] | EE ([1]; LNP with cationic lipid CL-C) [%] | Polydispersity Index (PDI) ([3]; LNP with cationic lipid CL-A) | Size [3, 7] [nm] | PDI ([3]; LNP with cationic lipid CL-B) | Size ([3]; LNP with cationic lipid CL-B) [nm] | PDI ([3]; LNP with cationic lipid CL-C) | Size ([3]; LNP with cationic lipid CL-C) [nm] | Structure (SMILES) | 6-h EPO [2, 5] [ng/mL] | 6-h EPO [2, 6] [ng/mL] | 6-h EPO ([2]; CL-C LNP, (6-h)) [ng/mL] | Normalized Mean IV EPO expression [4] | Normalized Mean EPO expression [2] | further results
1 | 93 | 95 | 93 | 0.121 | 137 | 0.151 | 120.1 | 0.142 | 92.2 | CCCCCCCCC(CCCCCCCC)OC(=O)CCCCCCC(=O)OCC(COP(=O)(O)OCCN(C)CCO)OC(=O)CCCCCCC(=O)OC(CCCCCCCC)CCCCCCCC (stereo not shown) [Compound 25] | 16.5 | 44.5 | 56.5 | 1.24 |  | 
2 | 93 | 81 | 60 | 0.071 | 137 | 0.022 | 122.7 | 0.054 | 110.9 | CCCCCCCCC(CCCCCCCC)C(=O)OCCCCCC(=O)OCC(COP(=O)(O)OCCN(C)C)OC(=O)CCCCCOC(=O)C(CCCCCCCC)CCCCCCCC (stereo not shown) [Compound 17, ((3-(((2-(Dimethylamino)ethoxy)(hydroxy)phosphoryl)oxy)propane-1,2-diyl)bis(oxy))bis(6-oxohexane-6,1-diyl) bis(2-octyldecanoate)] | 16.3 | 14.5 | 31.7 | 4.53 |  | 
3 | 93 | 89 | 89 | 0.072 | 155 | 0.104 | 117.5 | 0.104 | 117.5 | CCCCCCCCC(CCCCCCCC)C(=O)OCCCCCCC(=O)OCC(COP(=O)(O)OCCN(C)C)OC(=O)CCCCCCOC(=O)C(CCCCCCCC)CCCCCCCC (stereo not shown) [Compound 18, ((3-(((2-(Dimethylamino)ethoxy)(hydroxy)phosphoryl)oxy)propane-1,2-diyl)bis(oxy))bis(7-oxoheptane-7,1-diyl) bis(2-octyldecanoate)] | 30.1 | 23.7 | 28.8 | 4.68 |  | 
4 | 93 | 93 | 90 | 0.050 | 160 | 0.132 | 109.6 | 0.072 | 110.1 | CCCCCCCCC(CCCCCCCC)OC(=O)CCCCCCC(=O)OCC(COP(=O)(O)OCCN(C)C)OC(=O)CCCCCCC(=O)OC(CCCCCCCC)CCCCCCCC (stereo not shown) [Compound 12, O′^1,O^1-(3-(((2-(Dimethylamino)ethoxy)(hydroxy)phosphoryl)-oxy)propane-1,2-diyl) 8-di(heptadecan-9-yl) di(octanedioate)] | 28.9209 | 39.6 | 38.4 | 2.23 |  | EE ([1]; LNP with cationic lipid CL-D): 92%; EE ([1]; LNP with cationic lipid CL-E): 91%; 24-h EPO ([2]; CL-A LNP): 19.526 ng/mL; 24-h EPO ([2]; CL-B LNP): 24 ng/mL; 6-h EPO ([2]; CL-C LNP): 26.2 ng/mL; PDI ([3]; LNP with cationic lipid CL-D): 0.094; Size ([3]; LNP with cationic lipid CL-D): 113.4 nm; PDI ([3]; LNP with cationic lipid CL-E): 0.072; Size ([3]; LNP with cationic lipid CL-E): 112.6 nm
5 | 69 | 37 | 69 | 0.031 | 137 | 0.124 | 97.0 | 0.102 | 88.5 | CC(C)CCCCOC(=O)CCCCCCC(=O)OCC(COP(=O)(O)OCCN)OC(=O)CCCCCCC(=O)OCCCCC(C)C (stereo not shown) [Compound 2, O′^1,O^1-(3-(((2-Aminoethoxy)(hydroxy)phosphoryl)oxy)-propane-1,2-diyl) 8-bis(5-methylhexyl) di(octanedioate)] |  |  |  |  |  | EE ([1]; LNP with cationic lipid CL-D): 78%; PDI ([3]; LNP with cationic lipid CL-D): 0.064; Size ([3]; LNP with cationic lipid CL-D): 114.3 nm
6 | 94 | 98 | 97 | 0.059 | 153 | 0.108 | 123.9 | 0.129 | 97.0 | CCCCCCCCC(CCCCCCCC)OC(=O)CCCCCCC(=O)OCC(COP(=O)(O)OCCN(C)CCCO)OC(=O)CCCCCCC(=O)OC(CCCCCCCC)CCCCCCCC (stereo not shown) [Compound 27] | 25.6 | 53 | 46.9 |  |  | 

Further lines, the compound ahead of its results:

Row | Structure (SMILES) | Encapsulation efficiency (EE) [1] [%] | EE ([1]; LNP with cationic lipid CL-B) [%] | EE ([1]; LNP with cationic lipid CL-C) [%] | Polydispersity Index (PDI) ([3]; LNP with cationic lipid CL-A) | Size [3, 7] [nm] | PDI ([3]; LNP with cationic lipid CL-B) | Size ([3]; LNP with cationic lipid CL-B) [nm] | PDI ([3]; LNP with cationic lipid CL-C) | Size ([3]; LNP with cationic lipid CL-C) [nm] | 6-h EPO [2, 5] [ng/mL] | 6-h EPO [2, 6] [ng/mL] | 6-h EPO ([2]; CL-C LNP, (6-h)) [ng/mL] | Normalized Mean IV EPO expression [4] | Normalized Mean EPO expression [2] | further results
7 | CCCCCCCCC(CCCCCCCC)OC(=O)CCCCCCC(=O)OC[C@@H](COP(=O)(O)OCC[N+](C)(C)CCCO)OC(=O)CCCCCCC(=O)OC(CCCCCCCC)CCCCCCCC [Compound 38, (S)-2,3-Bis((8-(heptadecan-9-yloxy)-8-oxooctanoyl)oxy)propyl (2-((3-hydroxypropyl)dimethylammonio)ethyl) phosphate] |  |  |  |  |  |  |  |  |  |  |  |  | 0.8 |  | 
8 | CCCCCCCCC(CCCCCCCC)OC(=O)CCCCCCC(=O)OC[C@@H](COP(=O)(O)OCCN(C)CCCO)OC(=O)CCCCCCC(=O)OC(CCCCCCCC)CCCCCCCC [Compound 28, 8-Di(heptadecan-9-yl) O′1,O1-((2S)-3-((hydroxy(2-((3-hydroxypropyl)(methyl)amino)ethoxy)phosphoryl)oxy)propane-1,2-diyl) di(octanedioate)] |  |  |  |  |  |  |  |  |  |  |  |  |  | 1.77 | 
9 | CCCCCCCCC(CCCCCCCC)OC(=O)CCCCCCC(=O)OCC(COP(=O)(O)OCCCN(C)C)OC(=O)CCCCCCC(=O)OC(CCCCCCCC)CCCCCCCC (stereo not shown) [Compound 60] |  |  |  |  |  |  |  |  |  |  |  |  | 4.61 | 1.39 | 
10 | CCCCCCCCC(CCCCCCCC)OC(=O)CCCCCCC(=O)OC[C@@H](COP(=O)(O)OCCCCCN(C)C)OC(=O)CCCCCCC(=O)OC(CCCCCCCC)CCCCCCCC [Compound 65, O′^1,O^1-((2S)-3-((((5-(Dimethylamino)pentyl)oxy)(hydroxy)phosphoryl)-oxy)propane-1,2-diyl) 8-di(heptadecan-9-yl) di(octanedioate)] |  |  |  |  |  |  |  |  |  |  |  |  | 2.14 | 0.825 | 

Reference: patent publication US20260224688A1, “HELPER LIPIDS FOR NUCLEIC ACID DELIVERY” (SANOFI PASTEUR INC., priority 2023, published 2026)
